Measurements reported in publication PMC4333385 (Nucleic Acids Research, 2014).
Each block holds one compound with its values, some of them ahead of it.

Experiments:
E. coli RecQ helicase [1] = target: T1, E. coli RecQ helicase (Escherichia coli, UniProt P15043); experiment: quenched-flow ATP hydrolysis, global fit; format: biochemical; conditions: SF50 buffer pH 7.5, 5 mM MgCl2, 50 mM NaCl, 25 °C; gamma-32P-ATP; read-out: DNA-free RecQ
Excerpt: quenched-flow ATP hydrolysis, global fit on E. coli RecQ helicase

E. coli RecQ helicase [2] = target: T1, E. coli RecQ helicase; experiment: stopped-flow FRET binding kinetics; conditions: association rate constant, Kd not given, SF50 buffer pH 7.5, 5 mM MgCl2, 25 °C, labelled compound
Excerpt: stopped-flow FRET binding kinetics on E. coli RecQ helicase

E. coli RecQ helicase [3] = target: T1, E. coli RecQ helicase; experiment: stopped-flow FRET binding kinetics (k-1/k1); conditions: read-out: DNA-free RecQ
Excerpt: stopped-flow FRET binding kinetics (k-1/k1) on E. coli RecQ helicase

T1 sequence (P15043 2-609): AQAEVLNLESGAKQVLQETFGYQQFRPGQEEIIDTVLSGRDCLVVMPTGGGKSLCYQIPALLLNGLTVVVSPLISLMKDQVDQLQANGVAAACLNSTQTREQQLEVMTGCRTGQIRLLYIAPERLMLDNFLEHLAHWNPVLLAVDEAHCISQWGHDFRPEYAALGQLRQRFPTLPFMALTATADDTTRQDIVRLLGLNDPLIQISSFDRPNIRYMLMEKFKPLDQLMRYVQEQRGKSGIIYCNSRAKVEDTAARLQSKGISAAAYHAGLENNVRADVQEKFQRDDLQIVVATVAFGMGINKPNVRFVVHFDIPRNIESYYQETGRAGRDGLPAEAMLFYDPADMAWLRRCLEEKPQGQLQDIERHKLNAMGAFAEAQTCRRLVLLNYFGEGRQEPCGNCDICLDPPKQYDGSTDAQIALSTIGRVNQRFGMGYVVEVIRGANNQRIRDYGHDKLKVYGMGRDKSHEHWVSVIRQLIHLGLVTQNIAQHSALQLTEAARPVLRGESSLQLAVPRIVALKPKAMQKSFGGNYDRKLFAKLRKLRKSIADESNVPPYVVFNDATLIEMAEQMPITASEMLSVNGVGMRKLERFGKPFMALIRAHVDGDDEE

Kd (E. coli RecQ helicase [1]): 120 ± 30 µM
Structure (SMILES): Nc1ncnc2c1ncn2[C@@H]1O[C@H](COP(=O)(O)OP(=O)(O)OP(=O)(O)O)[C@@H](O)[C@H]1O [ATP]

DNA-free RecQ (E. coli RecQ helicase [2]): 4.5 ± 0.5 µM⁻¹ s⁻¹
Structure (SMILES): CNc1ccccc1C(=O)O[C@H]1C[C@H](n2cnc3c(N)ncnc32)O[C@@H]1COP(=O)(O)OP(=O)(O)O [mdADP]

Kd (E. coli RecQ helicase [3]): 15 ± 2 µM
Structure (SMILES): CNc1ccccc1C(=O)O[C@H]1C[C@H](n2cnc3c(N)ncnc32)O[C@@H]1COP(=O)(O)OP(=O)(O)OP(=O)(O)O [mdATP, 3′-(N-methylanthraniloyl)-2′-deoxy-ATP]
